Reference: PMC10101059, “Rational Design of Stapled Antimicrobial Peptides to Enhance Stability and In Vivo Potency against Polymicrobial Sepsis” (Microbiology Spectrum, 2023)
Values after ≈ are worked out from the molar mass of the structure shown. Read-outs that look alike come from different tables or passages of the source. Bridge positions count the residues as written; N and C are the ends. Square brackets hold non-standard residues; d marks the D form. Peptide text beside a SMILES is read from it. R5 = C=CCCC[C@@](C)(N)C(=O)O

How the values were obtained:
MDR A. baumannii 2962 [1] = assay: microbe, parasite or virus in culture; assay type: cell-based, Acinetobacter baumannii
Experimental: The antimicrobial assay was performed according to a modified National Committee for Clinical Laboratory Standards (NCCLS) protocol ([41], [42]). Briefly, 5 × 10^5 CFU/mL bacterial cells were treated with various peptide concentrations and incubated at 37 ± 2°C for 16 to 20 h. The lowest concentration with clear wells was recorded as the MIC for each test molecule. The clear wells were further plated in Mueller-Hinton agar (MHA) plates, followed by incubation overnight at 37 ± 2°C. After plating, the lowest concentration at which no growth was observed was recorded as the MBC. For the serum sensitivity assay, the antimicrobial activity of the peptides was tested in medium containing 50% human serum ([43], [44]).

A. baumannii = assay: Serial passage (induced resistance) assay; assay type: cell-based, Acinetobacter baumannii; settings: after serial passage for 15 cycles
Experimental: The experimental procedure was performed according to the MIC protocol for A. baumannii described above. Subsequently, bacterial samples from sub-MIC wells were passaged, and the MIC was estimated again. This process was repeated for 15 cycles, and the change in MIC over […] was reported ([23]).

A. baumannii biofilm = assay: Biofilm inhibition assay; assay type: cell-based, Acinetobacter baumannii; settings: 0.5× to 4× MIC
Experimental: (i) Biofilm inhibition assay. Fifty μL of 2 × 10^6 CFU/mL A. baumannii bacterial suspension was added to a 96-well plate. Then, 50 μL of peptide/drug (various concentrations) was added, and the plate was incubated for 24 h. The residual solution was removed, and wells were washed, followed by treatment with 100% methanol for 15 min at room temperature. The methanol was then removed, and the wells were allowed to dry at room temperature. Next, the wells were incubated with 100 μL of 0.02% crystal violet for 30 min. After the incubation, the wells were washed with distilled water and dried for an appropriate length of time. Finally, 100 μL of 33% acetic acid was added to the wells for 1 h, followed by reading the absorbance at 595 nm ([55]).

[2] = tested on: CLP-induced polymicrobial sepsis in C57BL/6 female mice; assay: CLP-induced polymicrobial sepsis model; assay type: in vivo; settings: for kidney (BUN, CRE) and liver function (GOT, GPT): 24 h after CLP; for survival: 7 days post-operation, i.p. 30 min after CLP, TP4-3 9 mg/kg, meropenem 10 mg/kg, combination 9 mg/kg TP4-3 and 5 mg/kg meropenem, CLP + saline 12.5%
Experimental: (i) CLP surgery. Cecal ligation and puncture surgery was performed to induce polymicrobial sepsis according to a previously described method ([37]). Female C57BL/6 mice at 6 to 8 weeks of age (weight = 18 to 22 g) were anesthetized by intraperitoneal administration of Zoletil (50 mg/kg). Then, a 1-cm incision was made at the abdomen to expose the cecum. The CLP procedure was performed with a 23-G needle. […] A sham group was subjected to abdomen incision without CLP and treated with saline by intraperitoneal injection. After the treatments, percent survival was used as a measure of test-candidate efficacy ([37]).
(ii) Estimation of bacterial load, cytokine expression, and toxicity profile after CLP and treatment. […] Blood samples were taken in collection tubes. Peritoneal fluid was collected in a sterilized 1.5-mL centrifuge tube. Organs, including the liver, lung, spleen, and kidney, were harvested, weighed, and placed in 1-mL sterile PBS for homogenization with a tissue lyzer (Tissuelyzer II, Qiagen, Dusseldorf, Germany). The homogenates, blood, and peritoneal fluid were diluted serially and plated on Mueller-Hinton broth agar plates. The plates were incubated at 37°C overnight. Each tissue was evaluated by measuring CFU/g ([37]).
To evaluate kidney and liver function, blood samples (n = 5 per group) were tested for ALT (GPT), AST (GOT), CRE, and BUN using a dry-chemistry analyzer as described above. Mouse serum was extracted to assess (n = 5 per group) expression of cytokines (Thermo Fisher Scientific, Waltham, MA) as a measure of inflammatory response ([37]).

MDR A. baumannii 1019 = assay: microbe, parasite or virus in culture; assay type: cell-based, Acinetobacter baumannii; settings: for MIC: read-out: Single drug treatment MIC; for TP4-3 and meropenem combined MIC: MIC of each agent in combination
Experimental: (§1) The FICI was measured using a standard checkerboard microdilution assay ([57]). Two-fold dilutions of antibiotics were made across the x axis, and two-fold peptide dilutions were made across the y axis. Next, bacteria were added at 5 × 10^5 CFU/well (A. baumannii), followed by incubation at 37 ± 2°C for 16 to 20 h. FIC indices were calculated according to the following equations: FICI = FIC1 + FIC2; FIC1 = (MIC12 combined)/MIC1; FIC2 = (MIC12 combined)/MIC2. The combined efficacy was estimated as follows: FICI ≤ 0.5, synergistic; 0.5 to 1, additive; 1 to 2, indifferent; ≥2, antagonistic.

MDR A. baumannii 14B001 = assay: microbe, parasite or virus in culture; assay type: cell-based, Acinetobacter baumannii; settings: for MIC: read-out: Single drug treatment MIC; for TP4-3 and meropenem combined MIC: MIC of each agent in combination
Experimental: as §1

MDR A. baumannii 1607 = assay: microbe, parasite or virus in culture; assay type: cell-based, Acinetobacter baumannii; settings: for MIC: read-out: Single drug treatment MIC; for TP4-3 and meropenem combined MIC: MIC of each agent in combination
Experimental: as §1

MDR A. baumannii 1702 = assay: microbe, parasite or virus in culture; assay type: cell-based, Acinetobacter baumannii; settings: for MIC: read-out: Single drug treatment MIC; for TP4-3 and meropenem combined MIC: MIC of each agent in combination
Experimental: as §1

MDR A. baumannii 2962 [3] = assay: microbe, parasite or virus in culture; assay type: cell-based, Acinetobacter baumannii; settings: for MIC: read-out: Single drug treatment MIC; for TP4-3 and meropenem combined MIC: MIC of each agent in combination
Experimental: as §1

MDR A. baumannii 2982 = assay: microbe, parasite or virus in culture; assay type: cell-based, Acinetobacter baumannii; settings: for MIC: read-out: Single drug treatment MIC; for TP4-3 and meropenem combined MIC: MIC of each agent in combination
Experimental: as §1

MDR A. baumannii 921 = assay: microbe, parasite or virus in culture; assay type: cell-based, Acinetobacter baumannii; settings: for MIC: read-out: Single drug treatment MIC; for TP4-3 and meropenem combined MIC: MIC of each agent in combination
Experimental: as §1

E. aerogenes = assay: microbe, parasite or virus in culture; assay type: cell-based, Enterobacter aerogenes; settings: for MIC: read-out: Single drug treatment MIC; for TP4-3 and meropenem combined MIC: MIC of each agent in combination
S enterica = assay: Checkerboard microdilution assay (FICI); assay type: cell-based, Salmonella enterica; settings: for TP4-3 and meropenem combined MIC: MIC of each agent in combination, TP4-3 and M
[4] = Acinetobacter baumannii, MHB medium
[5] = HS, MH medium containing 50% human serum
[6] = 24 h, ELISA, compared to saline-treated group
[7] = 72 h compared to 24 h after treatment

C[C@@H](O)[C@H]1C(=O)N2C(C(=O)O)=C(S[C@@H]3CN[C@H](C(=O)N(C)C)C3)[C@H](C)[C@H]12 [Meropenem]
MBC (MDR A. baumannii 2962 [1]; [4]): > 25 µM
MIC (MDR A. baumannii 2962 [1]; [4]): > 25 µM
MBC (MDR A. baumannii 2962 [1]; [5]): >25 µM
MIC (MDR A. baumannii 2962 [1]; [5]): >25 µM
net increase in the MIC (A. baumannii): 53 fold
inhibition of biofilm (biomass) formation (A. baumannii biofilm): substantial inhibition of biomass formation
kidney (BUN, CRE) and liver function (GOT, GPT) [2]: poor liver function profiles
survival [2]: 37.5%
MIC (MDR A. baumannii 1019; Acinetobacter baumannii): 50 µM
TP4-3 and meropenem combined MIC (MDR A. baumannii 1019; TP4-3 and M): 6.25 µM
MIC (MDR A. baumannii 14B001; Acinetobacter baumannii): 800 µM
TP4-3 and meropenem combined MIC (MDR A. baumannii 14B001; TP4-3 and M): 400 µM
MIC (MDR A. baumannii 1607; Acinetobacter baumannii): 100 µM
TP4-3 and meropenem combined MIC (MDR A. baumannii 1607; TP4-3 and M): 12.5 µM
MIC (MDR A. baumannii 1702; Acinetobacter baumannii): 25 to 50 µM
TP4-3 and meropenem combined MIC (MDR A. baumannii 1702; TP4-3 and M): 12.5 µM
MIC (MDR A. baumannii 2962 [3]; Acinetobacter baumannii): 100 µM
TP4-3 and meropenem combined MIC (MDR A. baumannii 2962 [3]; TP4-3 and M): 25 µM
MIC (MDR A. baumannii 2982; Acinetobacter baumannii): 400 µM
TP4-3 and meropenem combined MIC (MDR A. baumannii 2982; TP4-3 and M): 200 µM
MIC (MDR A. baumannii 921; Acinetobacter baumannii): 400 µM
TP4-3 and meropenem combined MIC (MDR A. baumannii 921; TP4-3 and M): 100 µM
MIC (E. aerogenes; Klebsiella aerogenes): 0.39 µM (≈ 0.15 µg/mL)
TP4-3 and meropenem combined MIC (E. aerogenes; TP4-3 and M): 0.097 µM
TP4-3 and meropenem combined MIC (S enterica): 0.19 µM
MIC (S enterica; Salmonella enterica, read-out: Single drug treatment MIC): 6.25 µM

CC[C@H](C)[C@H](NC(=O)[C@@H](NC(=O)[C@@H](N)Cc1ccccc1)[C@@H](C)CC)C(=O)N[C@]1(C)CCCC=CCCC[C@](C)(C(=O)NCC(=O)N[C@@H](CC(C)C)C(=O)N[C@@H](Cc2ccccc2)C(=O)N[C@@H](CCCCN)C(=O)N[C@@H](CCCCN)C(=O)N[C@@H](CCCCN)C(=O)N[C@@H](C)C(=O)NCC(=O)N[C@@H](C)C(=O)N[C@]2(C)CCCC=CCCC[C@](C)(C(=O)N[C@H](C(=O)N[C@@H](CCCCN)C(=O)N[C@@H](CCCCN)C(=O)O)[C@@H](C)CC)NC(=O)[C@H](CCCCN)NC(=O)[C@H](CCCCN)NC(=O)[C@H](CCCCN)NC2=O)NC(=O)[C@H](CO)NC(=O)[C@H](CCCCN)NC(=O)[C@H](CCCCN)NC1=O [TP4-3] (H-FII[R5]KKS[R5]GLFKKKAGA[R5]KKK[R5]IKK-OH; staple 4-8, 18-22; N-terminus and C-terminus assumed)
MBC (MDR A. baumannii 2962 [1]; MDR 2962): 12.5 µM (≈ 36.1 µg/mL)
MIC (MDR A. baumannii 2962 [1]; MDR 2962): 6.25 µM (≈ 18.1 µg/mL)
net increase in the MIC (A. baumannii): 5 fold
inhibition of biofilm (biomass) formation (A. baumannii biofilm): substantial inhibition of biomass formation
serum IL-6 level [2, 6]: lower levels
serum IL-10 level [2, 6]: higher level
serum IL-12 level [2, 6]: no difference
serum IL-18 level [2, 6]: lower levels
serum MCP-1 level [2, 6]: lower levels
serum TNF-α level [2, 6]: lower levels
kidney (BUN, CRE) and liver function (GOT, GPT) [2]: significantly improved
bacterial burden in peritoneal lavage fluid [2, 7]: no significant difference
decrease of bacterial burden, blood [2, 7]: 54%
decrease of bacterial burden, kidney [2, 7]: 51%
decrease of bacterial burden, liver [2, 7]: 61%
decrease of bacterial burden, lung [2, 7]: 51%
decrease of bacterial burden, spleen [2, 7]: 55%
bacterial burdens in the blood, lung, and liver ([2]; 72 h post-treatment, compared to CLP + saline): lower bacterial burdens
survival [2]: 87.5%
MIC (MDR A. baumannii 1019; MDR 1019): 12.5 µM
TP4-3 and meropenem combined MIC (MDR A. baumannii 1019; TP4-3 and D): 3.13 µM
TP4-3 and meropenem combined MIC (MDR A. baumannii 1019; TP4-3 and M): 3.13 µM
MIC (MDR A. baumannii 14B001; MDR 14B001): 3.13 µM
TP4-3 and meropenem combined MIC (MDR A. baumannii 14B001; TP4-3 and D): 3.13 µM
TP4-3 and meropenem combined MIC (MDR A. baumannii 14B001; TP4-3 and M): 0.09 µM
MIC (MDR A. baumannii 1607; MDR 1607): 6.25 µM
TP4-3 and meropenem combined MIC (MDR A. baumannii 1607; TP4-3 and D): 3.13 µM
TP4-3 and meropenem combined MIC (MDR A. baumannii 1607; TP4-3 and M): 3.13 µM
MIC (MDR A. baumannii 1702; MDR 1702): 6.25 µM
TP4-3 and meropenem combined MIC (MDR A. baumannii 1702; TP4-3 and D): 3.13 µM
TP4-3 and meropenem combined MIC (MDR A. baumannii 1702; TP4-3 and M): 3.13 µM
MIC (MDR A. baumannii 2962 [3]; MDR 2962): 6.25 µM
TP4-3 and meropenem combined MIC (MDR A. baumannii 2962 [3]; TP4-3 and D): 3.13 µM
TP4-3 and meropenem combined MIC (MDR A. baumannii 2962 [3]; TP4-3 and M): 3.13 µM
MIC (MDR A. baumannii 2982; MDR 2982): 6.25 µM
TP4-3 and meropenem combined MIC (MDR A. baumannii 2982; TP4-3 and D): 3.13 µM
TP4-3 and meropenem combined MIC (MDR A. baumannii 2982; TP4-3 and M): 3.13 µM
MIC (MDR A. baumannii 921; MDR 921): 6.25 µM
TP4-3 and meropenem combined MIC (MDR A. baumannii 921; TP4-3 and D): 3.13 µM
TP4-3 and meropenem combined MIC (MDR A. baumannii 921; TP4-3 and M): 0.78 µM
TP4-3 and meropenem combined MIC (E. aerogenes; TP4-3 and D): 3.13 µM
TP4-3 and meropenem combined MIC (E. aerogenes; TP4-3 and M): 0.78 µM
MIC (E. aerogenes): 25 µM (≈ 72.3 µg/mL)
TP4-3 and meropenem combined MIC (S enterica): 0.39 µM
